Values joined by “and” are separate entries in the source; they are usually repeats but may differ in a detail not shown here. Equal values may be shown once. Where a name gives a salt, the structure may show the parent alone.
Target: T1, thioredoxin (11.6 kDa) (Escherichia coli, UniProt P0AA25)
T1 construct: purchased Sigma Aldrich; host or cells: E. coli
Test: Photochemical labeling of thioredoxin (LC/MS, MS-MS)
Format: biochemical
Protocol: General Procedure B: Photochemical Irradiation of Peptides and Proteins: To a 2 mL Pyrex LC/MS vial (Thermo model #03-391-39) were sequentially added solutions containing the desired biomolecule, glutathione (GSH), pyridinium salt, and ammonium acetate (NH4OAc). The resulting solution was diluted to a final volume of 500 μL and then sparged using nitrogen for a minimum of 30 minutes prior to irradiation. The actively sparging solution was then placed in an EvoluChem™ PhotoRedOx Box photoreactor that was equipped with a Kessil, PR160 427 nm LED Lamp and was then irradiated (100% lamp intensity) for the designated time at room temperature while maintaining active sparging. The resultant reaction mixture was then analyzed directly by LC/MS. Analysis of labeling outcomes using LC/MS was performed either by extracted ion chromatogram intensities (method A) or by integrating the area under the peaks associated with peptide content (method B). These values were totaled, and estimated percentages were assigned according to relative intensities of peaks or ion counts.
Labeling of Thioredoxin with Pyridinium Salt 2a (Thioredoxin-2a Conjugate). […] The reaction mixture was directly analyzed by LC/MS using method A and was estimated to have proceeded with 93% conversion and a 14.5:1 mono:di labeled ratio and 3% glutathionylation of all protein content. […]

T1 sequence (P0AA25 whole entry): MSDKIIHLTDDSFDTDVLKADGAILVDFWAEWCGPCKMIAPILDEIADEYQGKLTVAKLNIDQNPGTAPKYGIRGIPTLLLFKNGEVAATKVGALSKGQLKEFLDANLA

With `COC(=O)N(C)[n+]1c(C)cc(-c2ccc3cc(OC)ccc3c2)cc1C` [Pyridinium salt 2a, 1-((methoxycarbonyl)(methyl)amino)-4-(6-methoxynapthalen-2-yl)-2,6-dimethylpyridin-1-ium tetrafluoroborate] the conversion (10 μM thioredoxin, 200 μM pyridinium salt, 300 μM glutathione, 20 mM NH4OAc pH 6.9, 427 nm, 60 minutes) was 93% and 87% and the “site of tryptophan modification” value (digestion/MS-MS) was “Trp-31”.
